One may read the inhibition as the relative decrease from the control value, in per cent.

Drawing on PMC12133982, “Predominant T-cell epitopes of SARS-CoV-2 restricted by multiple prevalent HLA-B and HLA-C allotypes in Northeast Asia” (Frontiers in Immunology, 2025), this text covers IC50 and inhibition for seven molecules.

One assay concerns the target HLA-B1301 (Homo sapiens, UniProt P01889, A65T/A93T/A95T/D138N/D201E/D98Y/E176V/E204Q/E69M/E70A/G107R/K202T/L105A/L119I/N104T/N87E/Q94N/R106L/R155S/R169L/R180L/S101N/S121R/S35A/S48T/T118I/V127L/V36M/Y140L/Y91S). Description: Competitive peptide binding assay, CIR-B1301. The settings on record: HMy2.CIR-B1301 cells, reference Cy5-[…], class from inhibition at 5 and 15 μM, flow cytometry MFI; read-out: Binding affinity with HLA-B1301. The procedure:
(§1) Then, competitive peptide binding assays were performed.
On the technique in general: Flow cytometry measures light scatter and fluorescence of single cells or particles in a stream.

A further assay concerns the target T1, HLA-B0702 (Homo sapiens, UniProt P01889).
T1 construct: expressed in transfected cells; host or cells: HMy2.CIR
Description: Competitive peptide binding assay, CIR-B0702. The settings on record: HMy2.CIR-B0702 cells, reference Cy5-[…], class from inhibition at 5 and 15 μM, flow cytometry MFI. The procedure: as §1

The target in another assay is HLA-B4601 (Homo sapiens, UniProt P01889, A329T/A93R/C349S/D201E/E100V/E187L/E204Q/E69M/E70A/I90K/K202T/N87E/R155S/R180W/S121R/S35A/S48A/V306I/V36M/Y140S). Description: Competitive peptide binding assay, CIR-B4601. The settings on record: for IC50: HMy2.CIR-B4601 cells, reference Cy5-[…], class from inhibition at 5 and 15 μM, flow cytometry MFI, read-out: Binding affinity with HLA-B4601. The procedure: as §1

The next assay deals with HLA-B3501 (Homo sapiens, UniProt P01889, A329T/A93T/A95T/C349S/D201E/D98Y/E176V/E187L/E204Q/E69T/I218V/K202T/L119I/Q94N/R155S/R180L/S121R/S35A/S48A/T118I/V127L/V306I/V36M/Y140S/Y91F). The assay is described as follows: Competitive peptide binding assay, CIR-B3501. The settings on record: HMy2.CIR-B3501 cells, reference Cy5-[…], class from inhibition at 5 and 15 μM, flow cytometry MFI; read-out: Binding affinity with HLA-B3501. The method, then:
as §1

The target of the next assay is HLA-B5801 (Homo sapiens, UniProt P01889, A329T/C349S/D201E/D98Y/E176V/E187L/E204Q/E69T/G107R/I218V/I90N/K202T/L105A/L119I/N104I/N87E/Q89R/Q94S/R106L/R155S/R180L/R86G/S101N/S121R/S35A/S48A/T118I/V127L/V306I/V36M/Y140S/Y91M). The assay is described as follows: Competitive peptide binding assay, CIR-B5801. The settings on record: HMy2.CIR-B5801 cells, reference Cy5-[…], class from inhibition at 5 and 15 μM, flow cytometry MFI; read-out: Binding affinity with HLA-B5801. The method, then: as §1

A further assay addresses HLA-B1302 (Homo sapiens, UniProt P01889, A65T/A93T/A95T/D138N/D201E/D98Y/E176V/E204Q/E69M/E70A/G107R/K202T/L105A/L119W/N104T/N87E/Q94N/R106L/R155S/R169L/R180L/S101N/S121T/S35A/S48T/V127L/V36M/Y140L/Y91S). Description: Competitive peptide binding assay, CIR-B1302. The settings on record: HMy2.CIR-B1302 cells, reference Cy5-MMWYWGPSL, class from inhibition at 5 and 15 μM, flow cytometry MFI; read-out: Binding affinity with HLA-B1302. The procedure:
as §1

The next assay has as its target HLA-B1502 (Homo sapiens, UniProt P01889, A329T/A93T/A95T/C349S/D201E/D98Y/E187L/E204Q/E69M/E70A/H137Y/K202T/L119I/Q94N/R155S/R180L/S121R/S35A/S48A/T118I/V306I/V36M/Y140S/Y91S). The assay is described as follows: Competitive peptide binding assay, CIR-B1502. The settings on record: HMy2.CIR-B1502 cells, reference Cy5-[…], class from inhibition at 5 and 15 μM, flow cytometry MFI; read-out: Binding affinity with HLA-B1502. The procedure:
as §1

The target in another assay is HLA-B1501 (Homo sapiens, UniProt P01889, A329T/A93T/A95T/C349S/D201E/D98Y/E187L/E204Q/E69M/E70A/K202T/N87E/Q94N/R155S/R180W/S121R/S35A/S48A/V306I/V36M/Y140S/Y91S). Description: Competitive peptide binding assay, CIR-B1501. The settings on record: HMy2.CIR-B1501 cells, reference Cy5-[…], class from inhibition at 5 and 15 μM, flow cytometry MFI; read-out: Binding affinity with HLA-B1501. The procedure: as §1

In the next assay the target is HLA-B4001 (Homo sapiens, UniProt P01889, A65T/A93T/A95T/D138N/D98Y/E176V/E69K/N87E/Q56L/Q94N/R180L/S121R/S35A/S48T/T167S/V36M/W171L/Y33H/Y91S). The assay is described as follows: Competitive peptide binding assay, CIR-B4001. The conditions noted are these: HMy2.CIR-B4001 cells, reference Cy5-[…], class from inhibition at 5 and 15 μM, flow cytometry MFI; read-out: Binding affinity with HLA-B4001. The procedure:
as §1

For another assay, the target named is HLA-C0303 (Homo sapiens, UniProt P10321, A176E/A330V/A97T/C25G/C350S/D114A/D33Y/E197K/G115R/L119I/L127V/L171W/L218V/M285V/M309V/M331V/P208H/Q277E/Q291P/R243W/R45H/S123Y/S140Y/S297R/S48A/T118I/T187L/T329A/T363A/V319A). The assay is described as follows: Competitive peptide binding assay, CIR-C0303. The settings on record: HMy2.CIR-C0303 cells, reference Cy5-[…], class from inhibition at 5 and 15 μM, flow cytometry MFI; read-out: Binding affinity with HLA-C0303. The method, then:
as §1

The next assay addresses HLA-C1402 (Homo sapiens, UniProt P10321, A176E/A330V/A35S/A97T/C350S/D114A/D33S/L171W/L180R/L218V/M285V/M309V/M331V/P208H/Q277E/Q291P/R121W/R243W/S123F/S297R/S48A/T329A/T363A/V319A). Description: Competitive peptide binding assay, CIR-C1402. The settings on record: HMy2.CIR-C1402 cells, reference Cy5-[…], class from inhibition at 5 and 15 μM, flow cytometry MFI; read-out: Binding affinity with HLA-C1402. The procedure: as §1

Another assay deals with HLA-C0801 (Homo sapiens, UniProt P10321, A176T/A330V/A97T/C350S/D114A/D138N/D33Y/E201K/E299G/L171W/L218V/M285V/M309V/M331V/P208H/Q277E/Q291P/R59Q/S123Y/S140F/S297R/S48A/T329A/T363A/V319A/V328M). The assay is described as follows: Competitive peptide binding assay, CIR-C0801. The conditions noted are these: HMy2.CIR-C0801 cells, reference Cy5-[…], class from inhibition at 5 and 15 μM, flow cytometry MFI; read-out: Binding affinity with HLA-C0801. The method, then: as §1

A further assay concerns the target HLA-C0602 (Homo sapiens, UniProt P10321, A176E/A330V/C350S/L171W/L180W/L218V/M285V/M309V/M331V/N104K/P208H/Q277E/Q291P/R121W/S101N/S123Y/S297R/T329A/T363A/V319A/V328M). Description: Competitive peptide binding assay, CIR-C0602.
For a further assay, the target named is HLA-C0702 (Homo sapiens, UniProt P10321). The assay is described as follows: Competitive peptide binding assay, CIR-C0702.

Peptide text beside a SMILES is read from it.

Take `CC(C)C[C@H](NC(=O)[C@H](CC(C)C)NC(=O)[C@H](C)NC(=O)[C@H](CCC(N)=O)NC(=O)[C@H](CCCNC(=N)N)NC(=O)[C@@H](NC(=O)[C@H](CCCNC(=N)N)NC(=O)[C@H](CCC(=O)O)NC(=O)CN)C(C)C)C(=O)O` [Epitope Y202] (H-GERVRQALL-OH; N-terminus and C-terminus assumed): the IC50 on HLA-B1301 was above 15 µM; at HLA-B0702, above 15 µM; on HLA-B4601, 5 to 15 µM; on HLA-B3501 it was above 15 µM; at HLA-B5801, above 15 µM; at HLA-B1302, above 15 µM. The IC50 on HLA-B1502 and on HLA-B1501 was above 15 µM throughout.
Regarding `CC(C)C[C@H](NC(=O)[C@H](CC(C)C)NC(=O)[C@@H](NC(=O)[C@@H](NC(=O)[C@@H](NC(=O)[C@H](CCC(N)=O)NC(=O)[C@H](CCC(N)=O)NC(=O)[C@H](CCCCN)NC(=O)[C@@H](N)CCCCN)[C@@H](C)O)C(C)C)[C@@H](C)O)C(=O)O` [Epitope Y196] (H-KKQQTVTLL-OH; N-terminus and C-terminus assumed), the IC50 was above 15 µM on HLA-B1301; above 15 µM at HLA-B0702; below 5 µM on HLA-B4601; above 15 µM on HLA-B3501; above 15 µM on HLA-B5801; 5 to 15 µM at HLA-B1302. For the same molecule, on HLA-B1501, the IC50 is above 15 µM.
With `CSCC[C@H](NC(=O)[C@H](CO)NC(=O)[C@H](CCC(N)=O)NC(=O)[C@H](CCC(N)=O)NC(=O)[C@H](CC(C)C)NC(=O)[C@H](CCC(N)=O)NC(=O)[C@H](CCCCN)NC(=O)[C@H](CO)NC(=O)[C@@H](N)Cc1ccccc1)C(=O)O` [Epitope Y135] (H-FSKQLQQSM-OH; N-terminus and C-terminus assumed), the IC50 at HLA-B1301 is above 15 µM; at HLA-B0702, 5 to 15 µM; on HLA-B4601 it was below 5 µM; on HLA-B3501 it was above 15 µM; at HLA-B5801, 5 to 15 µM; on HLA-B1501, below 5 µM.
Regarding `CSCC[C@H](NC(=O)[C@H](C)NC(=O)[C@@H]1CCCN1C(=O)[C@H](CC(=O)O)NC(=O)[C@H](C)NC(=O)[C@H](C)NC(=O)[C@H](Cc1ccc(O)cc1)NC(=O)[C@@H](NC(=O)[C@@H](N)CC(C)C)C(C)C)C(=O)O` [Epitope Y165] (H-LVYAADPAM-OH; N-terminus and C-terminus assumed), the IC50 is 5 to 15 µM at HLA-B1301; 5 to 15 µM at HLA-B0702; 5 to 15 µM on HLA-B4601; below 5 µM on HLA-B3501; above 15 µM at HLA-B5801; 5 to 15 µM on HLA-B1502. The IC50 at HLA-B4001 and on HLA-B1501 was above 15 µM each time.
Turning to `CSCC[C@H](NC(=O)[C@H](C)NC(=O)[C@@H](N)Cc1ccccc1)C(=O)N[C@@H](CCC(N)=O)C(=O)N[C@@H](CCSC)C(=O)N[C@@H](C)C(=O)N[C@@H](Cc1ccc(O)cc1)C(=O)N[C@@H](CCCNC(=N)N)C(=O)N[C@@H](Cc1ccccc1)C(=O)O` [Epitope Y189], the IC50 at HLA-B1301 is 5 to 15 µM; on HLA-B0702, below 5 µM; on HLA-B4601 it was below 5 µM; at HLA-B3501, 5 to 15 µM; on HLA-B5801, above 15 µM; on HLA-B1502 it was above 15 µM. The IC50 on HLA-B1501 was above 15 µM. For the same molecule, at HLA-B4601 (read-out: Inhibition % of Cy5-reference peptide binding, CIR-B4601, 5μM peptide), the inhibition at 5 µM came to 74.8%. In addition, on HLA-B4601 (read-out: Inhibition % of Cy5-reference peptide binding, CIR-B4601, 15μM peptide), the inhibition at 15 µM came to 92.9%.
On to `CC(C)C[C@H](NC(=O)[C@H](CC(=O)O)NC(=O)[C@H](C)NC(=O)[C@H](C)NC(=O)[C@@H]1CCCN1C(=O)[C@@H](N)CC(C)C)C(=O)N[C@@H](CC(=O)O)C(=O)N[C@@H](CC(=O)O)C(=O)N[C@@H](Cc1ccccc1)C(=O)O` [Epitope Y180] (H-LPAADLDDF-OH; N-terminus and C-terminus assumed), for which the IC50 at HLA-B1301 was above 15 µM; on HLA-B0702 it was above 15 µM; on HLA-B4601, above 15 µM; on HLA-B5801, above 15 µM; at HLA-B1502 it was above 15 µM; on HLA-B1501, 5 to 15 µM.
With `CC[C@H](C)[C@H](NC(=O)[C@H](Cc1ccccc1)NC(=O)[C@@H](N)Cc1ccc(O)cc1)C(=O)N[C@@H](C)C(=O)N[C@@H](CO)C(=O)N[C@@H](Cc1ccccc1)C(=O)N[C@@H](CCCNC(=N)N)C(=O)N[C@@H](CC(C)C)C(=O)N[C@@H](Cc1ccccc1)C(=O)O` [Epitope M107] (H-YFIASFRLF-OH; N-terminus and C-terminus assumed), the IC50 at HLA-C0303 is 5 to 15 µM; on HLA-C1402, below 5 µM; at HLA-C0801, above 15 µM; on HLA-C0602, above 15 µM; on HLA-C0702, above 15 µM.
